Data published in patent US12496302B2, “Compositions and methods for the treatment and diagnosis of cancer” (The General Hospital Corporation, priority 2020, dated 2025).

How the values were obtained:
[1] = system: SKOV3 xenograft tumors; experiment: SKOV3 subcutaneous xenograft with Cisplatin; format: in vivo, BALB/c nude mice; conditions: Lv-shTRDMT1 infected SKOV3 xenografts, Cisplatin 5 mg/kg intratumoral twice per week for 3 weeks
Procedure: FIGS. 5A-5E show reduced TRDMT1 expression renders Cisplatin sensitization in vivo. (FIG. 5A) Lv-shTRDMT1 or Lv-NC transfected SKOV3 cells were subcutaneously injected into BALB/c nude mice, a week after injection, Cisplatin (5 mg/kg) or saline was injected into the center of the xenograft tumors twice per week for 3 consecutive weeks. (FIG. 5B) Representative images of tumors in xenografts transfected with LV-shTRDMT1/LV-NC with saline or Cisplatin treatment. (FIG. 5C) Tumor size of SKOV3 subcutaneous xenograft tumors (n=6, Mean±SD). (FIG. 5D) WB for TRDMT1 in tumor tissues collected from mice in each group (Tissues from six tumors in the same group were mixed into one sample). (FIG. 5E) IHC of TRDMT1 and KI-67 expression in ovarian cancer tissues of patients who were platinum-sensitive (PFS>6) and −resistant (PFS<6) Staining was assessed and scored on a scale of 0 (<5% staining) to 4 (>75% staining) in G. Quantification of IHC staining (n=38, PFS>6, n=24; PFS<6, n=14) was shown.
SKOV3 cells (1.0×10^6) were transfected with LV-TRDMT1-RNAi (gcAGAAGA AATTCACAGGAAA, SEQ ID NO: 15) or LV-NC-RNAi and injected […] into female nude mice which were then randomly divided into 4 groups (6 animals per condition). […] PFS was calculated from the time of surgery to the time of progression or recurrence. […]

[2] = system: cancer cell lines (HST578, MBAMD231, HCC1937, HCC1954); experiment: Cell survival (colony) assay with TRDMT1i alone, Example 19; format: cell-based; conditions: HCC1954 (HRD, high SYCP2)
Procedure: FIGS. 14A-14C show TRDMT1i alone reduce cancer cell survival in a dose-dependent manner. (FIG. 14A) Survival rate of HR proficient (HR+) HST578 cancer cells with and without siBRCA1 and/or TRDMT1i YW-1842 at indicated dose. The survival rate of these cells was analyzed (n=3, Mean±SD). (FIG. 14B) Survival rate of MBAMD231 (HR+) and HCC1937 (HRD) cells. The survival rate of these cells was analyzed (n=3, Mean±SD). (FIG. 14C) Cell survival rate in different cancer cell lines via colony-forming assay with the treatment of Imatinib at indicated dose (n=3, mean+/−S.D.). Cell lines are listed in order with the expression level from SYCP2high to SYCP2low.
HCC1500, HCC1954, BT549, MCF7 and MDAMB468 were cultured in Roswell Park Memorial Institute (RPMI) 1640 Medium (Sigma, R8758) with 10% (vol/vol) fetal bovine serum (FBS, XY Cell Culture, FBS-500) at 37° C., 5% CO2. siBRCA1 (L-003461-00, Dharmacon) was transfected with Lipofectamine RNAiMax (Invitrogen; Carlsbad, CA, USA). PARPi Olaparib (AZD2281/Ku-0059436, Sellekchem, S1060) and Pol theta inhibitor Novobiocin (Sigma) were used.
Cells were seeded in each 6-cm dish and cultured as described above. They were treated with drugs with indicated dose in medium after seeding. After 7-10 days, colonies were fixed and stained with 0.3% crystal violet in methanol, and the number of colonies was counted manually.

[3] = system: MD-MBA-231 xenograft tumors; experiment: MDA-MB-231 xenograft with PARPi; format: in vivo, BALB/c nude mice; conditions: injection every 2 days after day 7, 23 days
Procedure: FIGS. 9A-9G show SYCP2 is required for efficient homologous recombination. (FIG. 9A) Cell survival rate of HeLa and MDAMB231 via colony forming assay with the treatment of 2 μM, 4 μm, 6 μM, 8 μM, 16 μM of Olaparib (n=3, mean+/−S.D.). Western blot of SYCP2 overexpression in HeLa and MDA-MB-231 is shown in the left. (FIG. 9B) Cell survival rate of HeLa via colony forming assay with the treatment of 1 μM, 2 μm, 3 μM of Olaparib (n=3, mean+/−S.D.). Western blot of SYCP2 knockdown in Hela is shown in the left. (FIG. 9C) Scheme of Xenograft design using intraperitoneal injection of MBA-MD-231 into successful developed mouse model with virus-associated SYCP2 knockdown and control groups is shown in the left. PARPi was injected every 2 days after day 7. The graph is shown the recorded tumor size of each tested group with PARPi treatment or saline at each treatment day. (FIG. 9D). Numbers of SYCP2 IR induced foci (IRIF) colocalizing with γH2AX in MDAMB231 and HeLa cells. Cells were fixed and counted for foci numbers after 2 Gy IR followed up indicated recovery time (t=0 hr, 12 hr, 24 hr, and 48 hr) (n=30, mean+/−S.D). (FIG. 9E). […] Fold increase of mean intensity at sites of irradiation compared to mean intensity of nucleus expression is quantified (n=5, mean+/−SD). […] Numbers of RAD51 IRIF in siCtrl and siSYCP2 treated MDAMB231 and U2OS cells after 2 Gy IR and 1 hour recovery were counted (n=20, +/−SD). […]

N.N.[Cl][Pt][Cl] [cisplatin]
xenograft tumor size [1]: grew statistically smaller

O=C(c1cc(Cc2n[nH]c(=O)c3ccccc23)ccc1F)N1CCN(C(=O)C2CC2)CC1 [olaparib]
sensitivity of HCC1954 to PARPi [2]: relatively resistant | tumor growth reduction by PARPi, SYCP2 knockdown versus control tumors ([3]; LV-siSYCP2 tumors): more than control tumors | tumor growth, control tumors ([3]; siControl tumors): reduced the growth of control tumors
